IC50 data for 3 compounds are collected here from ChEMBL document CHEMBL1671705, “Investigations into the role of the Plasmodium falciparum SERCA (PfATP6) L263E mutation in artemisinin action and resistance” (Antimicrob Agents Chemother, 2010).

In general, IC50 refers to the concentration that inhibits the measured activity by half.

Common to all, as to assay type: functional, organism-based
The test system of assay [1] is Plasmodium falciparum. Put plainly: Antimalarial activity against Plasmodium falciparum 7G8 harboring pfATP6 L263 mutant assessed as inhibition of [3H]hypoxanthine incorporation.
Assay [2] has as its system Plasmodium falciparum. Put plainly: Antimalarial activity against Plasmodium falciparum 7G8 harboring pfATP6 263E mutant assessed as inhibition of [3H]hypoxanthine incorporation.
Assay [3] deals with Plasmodium falciparum. The assay can be described thus: Antimalarial activity against Plasmodium falciparum D10 harboring pfATP6 L263 mutant assessed as inhibition of [3H]hypoxanthine incorporation.
The test system of assay [4] is Plasmodium falciparum. Put plainly: Antimalarial activity against Plasmodium falciparum D10 harboring pfATP6 263E mutant assessed as inhibition of [3H]hypoxanthine incorporation.
The subject of assay [5] is Plasmodium falciparum. Put plainly: Antimalarial activity against Plasmodium falciparum 7G8 clone 1 harboring pfATP6 L263 mutant assessed as inhibition of [3H]hypoxanthine incorporation.
For assay [6], the system named is Plasmodium falciparum. The assay can be described thus: Antimalarial activity against Plasmodium falciparum 7G8 clone 1 assessed as inhibition of [3H]hypoxanthine incorporation.
Assay [7] concerns Plasmodium falciparum. Put plainly: Antimalarial activity against Plasmodium falciparum 7G8 clone 2 assessed as inhibition of [3H]hypoxanthine incorporation.
In assay [8] the test system is Plasmodium falciparum. Put plainly: Antimalarial activity against Plasmodium falciparum 7G8 clone M1 harboring pfATP6 L263 mutant assessed as inhibition of [3H]hypoxanthine incorporation.
The subject of assay [9] is Plasmodium falciparum. Put plainly: Antimalarial activity against Plasmodium falciparum 7G8 clone M1 assessed as inhibition of [3H]hypoxanthine incorporation.
Assay [10] has as its system Plasmodium falciparum. Put plainly: Antimalarial activity against Plasmodium falciparum 7G8 clone M2 assessed as inhibition of [3H]hypoxanthine incorporation.
Assay [11] concerns Plasmodium falciparum. The assay can be described thus: Antimalarial activity against Plasmodium falciparum 7G8 clone M3 assessed as inhibition of [3H]hypoxanthine incorporation.
In assay [12] the test system is Plasmodium falciparum. The assay can be described thus: Antimalarial activity against Plasmodium falciparum 7G8 clone M4 assessed as inhibition of [3H]hypoxanthine incorporation.
In assay [13] the test system is Plasmodium falciparum. The assay can be described thus: Antimalarial activity against Plasmodium falciparum D10 clone 1 harboring pfATP6 L263 mutant assessed as inhibition of [3H]hypoxanthine incorporation.
For assay [14], the system named is Plasmodium falciparum. Put plainly: Antimalarial activity against Plasmodium falciparum D10 clone 1 assessed as inhibition of [3H]hypoxanthine incorporation.
Assay [15] relates to Plasmodium falciparum. The assay can be described thus: Antimalarial activity against Plasmodium falciparum D10 clone 2 assessed as inhibition of [3H]hypoxanthine incorporation.
Assay [16] relates to Plasmodium falciparum. The assay can be described thus: Antimalarial activity against Plasmodium falciparum D10 clone M1 harboring pfATP6 L263 mutant assessed as inhibition of [3H]hypoxanthine incorporation.
In assay [17] the test system is Plasmodium falciparum. The assay can be described thus: Antimalarial activity against Plasmodium falciparum D10 clone M1 assessed as inhibition of [3H]hypoxanthine incorporation.
The test system of assay [18] is Plasmodium falciparum. The assay can be described thus: Antimalarial activity against Plasmodium falciparum D10 clone M2 assessed as inhibition of [3H]hypoxanthine incorporation.
Assay [19] deals with Plasmodium falciparum. Put plainly: Antimalarial activity against Plasmodium falciparum D10 clone M3 assessed as inhibition of [3H]hypoxanthine incorporation.

Take `C[C@H]1[C@H](OC(=O)CCC(=O)O)O[C@@H]2O[C@@]3(C)CC[C@H]4[C@H](C)CC[C@@H]1[C@@]24OO3` [ARTESUNATE]: the IC50 in the assay on Plasmodium falciparum [1] was found to be 13.5 nM; in the assay with Plasmodium falciparum [2], 14.9 nM; in the assay with Plasmodium falciparum [3] it was 23.6 nM; in the assay on Plasmodium falciparum [4], 26.2 nM; in the assay with Plasmodium falciparum [5], 13.5 nM; with Plasmodium falciparum [6], 14.2 nM. Also, the half-maximal inhibitory concentration (IC50) in the assay on Plasmodium falciparum [7] turned out to be 12.1 nM; with Plasmodium falciparum [8] it was 14.9 nM; in the assay with Plasmodium falciparum [9], 16 nM; in the assay with Plasmodium falciparum [10] it was 13.3 nM; in the assay with Plasmodium falciparum [11] it was 12.4 nM; in the assay on Plasmodium falciparum [12] it was 21.3 nM. For the same compound, the IC50 with Plasmodium falciparum [13] amounted to 23.6 nM; in the assay with Plasmodium falciparum [14], 26.6 nM; in the assay on Plasmodium falciparum [15], 16.8 nM; with Plasmodium falciparum [16], 26.2 nM; in the assay with Plasmodium falciparum [17] it was 26.5 nM; with Plasmodium falciparum [18], 27.7 nM. Further, in the assay with Plasmodium falciparum [19], the IC50 came to 24.3 nM.

`C[C@H]1[C@@H](O)O[C@@H]2O[C@@]3(C)CC[C@H]4[C@H](C)CC[C@@H]1[C@@]24OO3` [ARTENIMOL]: the IC50 in the assay with Plasmodium falciparum [1] turned out to be 2.26 nM; in the assay with Plasmodium falciparum [2], 1.3 nM; in the assay on Plasmodium falciparum [3], 3.41 nM; in the assay with Plasmodium falciparum [4], 3.96 nM; with Plasmodium falciparum [5] it was 2.26 nM; in the assay on Plasmodium falciparum [6], 2.01 nM. For the same compound, the half-maximal inhibitory concentration (IC50) in the assay on Plasmodium falciparum [7] came to 2.76 nM; in the assay with Plasmodium falciparum [8], 2.37 nM; in the assay with Plasmodium falciparum [9], 2.58 nM; with Plasmodium falciparum [10] it was 2.19 nM; in the assay with Plasmodium falciparum [11] it was 2.41 nM; in the assay with Plasmodium falciparum [12] it was 2.25 nM. The IC50 in the assay on Plasmodium falciparum [13] is 3.41 nM; with Plasmodium falciparum [14] it was 3.42 nM; in the assay on Plasmodium falciparum [15] it was 3.38 nM; in the assay on Plasmodium falciparum [16] it was 3.96 nM; with Plasmodium falciparum [17] it was 3.79 nM; in the assay with Plasmodium falciparum [18], 4.52 nM. For the same compound, the IC50 in the assay on Plasmodium falciparum [19] turned out to be 3.56 nM.

On to `C[C@@H]1CC[C@H]2[C@@H](C)C(=O)O[C@@H]3O[C@@]4(C)CC[C@@H]1[C@]32OO4` [ARTEMISININ], for which the IC50 with Plasmodium falciparum [1] was found to be 20.7 nM; with Plasmodium falciparum [2], 22.3 nM; with Plasmodium falciparum [3] it was 42.8 nM; with Plasmodium falciparum [4] it was 51.6 nM; in the assay with Plasmodium falciparum [5], 20.7 nM; with Plasmodium falciparum [6] it was 20.6 nM. Moreover, the IC50 in the assay on Plasmodium falciparum [7] was determined as 20.9 nM; in the assay with Plasmodium falciparum [8], 22.3 nM; in the assay on Plasmodium falciparum [9] it was 25.2 nM; in the assay on Plasmodium falciparum [10], 19.7 nM; in the assay with Plasmodium falciparum [11], 20.5 nM; in the assay with Plasmodium falciparum [12], 25.3 nM. The IC50 with Plasmodium falciparum [13] was 42.8 nM; with Plasmodium falciparum [14] it was 47.6 nM; with Plasmodium falciparum [15], 34.3 nM; with Plasmodium falciparum [16] it was 51.6 nM; with Plasmodium falciparum [17] it was 62.3 nM; in the assay with Plasmodium falciparum [18] it was 55.8 nM. Further, the IC50 in the assay with Plasmodium falciparum [19] was determined as 36.8 nM.
